Measurements taken from patent publication US20260209249A1, “NOVEL TRICYCLIC COMPOUND AS KRAS G12D INHIBITOR, AND USE THEREOF” (SK Biopharmaceuticals Co., priority 2022, published 2026).

Tests used:
[1] = target: T1, GDP-KRAS G12D mutant protein (Homo sapiens, UniProt P01116, G12D); assay: Differential scanning fluorimetry (DSF) binding affinity to GDP-KRAS G12D mutant protein; conditions: DSF thermal shift, 10 μM compound, 4 μg KRAS protein
T1 construct: purchased Daegu Gyeongbuk Medical Innovation Foundation (DGMIF), made to order
Description: (§1) Test Example 1: Measurement of Binding Affinity to KRAS G12D Mutant Protein The binding affinities of the compounds according to one embodiment of the present application to the KRAS G12D mutant protein were evaluated using differential scanning fluorimetry (DSF). Differential scanning fluorimetry (DSF) is a method used to study the stability of a protein upon binding to a compound. The experiment can be performed using a real-time PCR (RT-PCR) instrument, and is commonly employed as a screening technique for small-molecule compounds targeting specific proteins. As the temperature increases, folded proteins begin to unfold, during which a hydrophobic dye such as SYPRO Orange binds to the exposed hydrophobic regions of the protein, resulting in a measurable increase in fluorescence intensity (maximum absorption at 470 nm and maximum emission at 570 nm). Protein-compound binding is determined by the difference in the melting temperature (Tm) of the protein in the presence of the compound compared to the Tm in the absence of the compound, expressed as ΔTm. The binding affinity to the KRAS G12D mutant protein was measured using the Protein Thermal Shift Dye kit (#4461146, Applied Biosystems). The GDP-KRAS G12D mutant protein and GppNHp-KRAS G12D mutant protein used in the experiment were recombinant proteins synthesized by the Daegu Gyeongbuk Medical Innovation Foundation (DGMIF) upon request. The analysis of binding between the compound and the KRAS G12D mutant protein was performed according to the following reaction recipe: each test sample contained 4 μg of KRAS protein, 10 μM of the compound, and 2×SYPRO Orange dye. For the GDP-KRAS G12D protein samples, the buffer provided with the Protein Thermal Shift Dye kit was used, while for the GppNHp-KRAS G12D protein samples, 50 mM HEPES (pH 7.5) buffer was used. For the protein-compound binding reaction, the compound was added to the KRAS G12D mutant protein and reacted at room temperature for 30 minutes, followed by the addition of 2×SYPRO Orange dye. The temperature was increased to 25° C.-99° C. (0.05° C./s) using QuantStudiol RT-PCR instrument (Applied Biosystems), and fluorescence was measured using a ROX reporter with filters of 580±10 nm (excitation)/623±14 nm (emission). The measurements obtained at a compound concentration of 10 μM were analyzed using the Protein Thermal Shift Software program (version v1.4, Thermo Fisher Scientific), and the ΔTm (° C.) values, which indicate the binding affinity of the compound to the KRAS G12D mutant protein, were calculated. The DSF measurement results for the compounds according to one embodiment of the present application with respect to the KRAS G12D mutant protein are shown in Table 2.

[2] = target: T2, GppNHp-KRAS G12D mutant protein (Homo sapiens, UniProt P01116, G12D); assay: Differential scanning fluorimetry (DSF) binding affinity to GppNHp-KRAS G12D mutant protein; conditions: DSF thermal shift, 10 μM compound, 4 μg KRAS protein, 50 mM HEPES (pH 7.5)
T2 construct: purchased Daegu Gyeongbuk Medical Innovation Foundation (DGMIF), made to order
Description: as §1

Compound | GDP-KRAS G12D (ΔTmD, ° C.) [1] [°C] | GppNHp-KRAS G12D (ΔTmD, ° C.) [2] [°C]
Cc1cc2c(o1)c(-c1cc(N)ccc1C(F)(F)F)c(F)c1nc(OC[C@@]34CCCN3C[C@H](F)C4)nc(N3CC4CCC(C3)N4)c12 [Example 49, 3-(1-((1R,5S)-3,8-diazabicyclo[3.2.1]octan-3-yl)-5-fluoro-3-(((2R,7aS)-2-fluorotetrahydro-1H-pyrrolizin-7a(5H)-yl)methoxy)-8-methylfuro[3,2-n]quinazolin-6-yl)-4-(trifluoromethyl)aniline] | 1.92 | 0.73
C#Cc1c(F)ccc2cc(O)cc(-c3cc4nc(OCC5(CN6CC[C@@H](F)C6)CCC5)nc(N5C[C@H]6CC[C@@H](C5)N6)c4n4ccnc34)c12 [Example 40, 4-(1-((1R,5S)-3,8-diazabicyclo[3.2.1]octan-3-yl)-3-((1-(((R)-3-fluoropyrrolidin-1-yl)methyl)cyclobutyl)methoxy)imidazo[1′,2′:1,6]pyrido[3,2-d]pyrimidin-6-yl)-5-ethynyl-6-fluoronaphthalen-2-ol] | 5.95 | 0.61
C#Cc1c(F)ccc2cc(O)cc(-c3c(F)c4nc(N5CC(N(C)C)C5)nc(N5C[C@H]6CC[C@@H](C5)N6)c4c4cn(C)nc34)c12 [Example 72, 4-(9-((1R,5S)-3,8-diazabicyclo[3.2.1]octan-3-yl)-7-(3-(dimethylamino)azetidin-1-yl)-5-fluoro-2-methyl-2H-pyrazolo[4,3-n]quinazolin-4-yl)-5-ethynyl-6-fluoronaphthalen-2-ol] | −0.29 | 0.00
Cc1cc2c(o1)c(-c1c(Cl)c(C)cc3[nH]ncc13)c(F)c1nc(OC[C@@]34CCCN3C[C@H](F)C4)nc(N3C[C@H]4CC[C@@H](C3)N4)c12 [Example 51, 1-((1 R,5S)-3,8-diazabicyclo[3.2.1]octan-3-yl)-6-(5-chloro-6-methyl-1H-indazol-4-yl)-5-fluoro-3-(((2R,7aS)-2-fluorotetrahydro-1H-pyrrolizin-7a(5H)-yl)methoxy)-8-methylfuro[3,2-f]quinazoline] | 4.73 | 1.32
C#Cc1c(F)ccc2cc(O)cc(-c3cc4nc(OC[C@]56CCCN5CC(=C)C6)nc(N5C[C@H]6CC[C@@H](C5)N6)c4n4ccnc34)c12 [Example 33, 4-(1-((1R,5S)-3,8-diazabicyclo[3.2.1]octan-3-yl)-3-(((R)-2-methylenetetrahydro-1H-pyrrolizin-7a(5H)-yl)methoxy)imidazo[1′,2′:1,6]pyrido[3,2-d]pyrimidin-6-yl)-5-ethynyl-6-fluoronaphthalen-2-ol] | 7.42 | 3.59
C#Cc1c(F)ccc2cc(O)cc(-c3cc4nc(OCC5(CN6CC[C@@H](F)C6)CC5)nc(N5C[C@H]6CC[C@@H](C5)N6)c4n4ccnc34)c12 [Example 30, 4-(1-((1R,5S)-3,8-diazabicyclo[3.2.1]octan-3-yl)-3-((1-(((R)-3-fluoropyrrolidin-1-yl)methyl)cyclopropyl)methoxy)imidazo[1′,2′:1,6]pyrido[3,2-d]pyrimidin-6-yl)-5-ethynyl-6-fluoronaphthalen-2-ol] | 8.12 | 2.81
C#Cc1c(F)ccc2cccc(-c3cc4nc(OC[C@@]56CCCN5C/C(=C\F)C6)nc(N5C[C@H]6CC[C@@H](C5)N6)c4c4cn(C)nc34)c12 [Example 78, 9-((1 R,5S)-3,8-diazabicyclo[3.2.1]octan-3-yl)-4-(8-ethynyl-7-fluoronaphthalen-1-yl)-7-(((S,Z)-2-(fluoromethylene)tetrahydro-1H-pyrrolizin-7a(5H)-yl)methoxy)-2-methyl-2H-pyrazolo[4,3-n]quinazoline] | 5.46 | 1.17
Cc1cc2c(o1)c(-c1ccc(F)c3sc(N)nc13)c(F)c1nc(OC[C@@]34CCCN3C[C@H](F)C4)nc(N3C[C@H]4CC[C@@H](C3)N4)c12 [Example 55, 4-(1-((1R,5S)-3,8-diazabicyclo[3.2.1]octan-3-yl)-5-fluoro-3-(((2R,7aS)-2-fluorotetrahydro-1H-pyrrolizin-7a(5H)-yl)methoxy)-8-methylfuro[3,2-n]quinazolin-6-yl)-7-fluorobenzo[d]thiazol-2-amine] | 3.24 | 1.91
C#Cc1c(F)ccc2cccc(-c3c(F)c4nc(OC[C@@]56CCCN5C[C@H](F)C6)nc(N5C[C@H]6CC[C@@H](C5)N6)c4c4cn(C)nc34)c12 [Example 82, 9-((1 R,5S)-3,8-diazabicyclo[3.2.1]octan-3-yl)-4-(8-ethynyl-7-fluoronaphthalen-1-yl)-5-fluoro-7-(((2R,7aS)-2-fluorotetrahydro-1H-pyrrolizin-7a(5H)-yl)methoxy)-2-methyl-2H-pyrazolo[4,3-n]quinazoline] | 7.52 | 3.26
C#Cc1c(F)ccc2cc(N)cc(-c3cc4nc(OC[C@@]56CCCN5C/C(=C\F)C6)nc(N5C[C@H]6CC[C@@H](C5)N6)c4n4ccnc34)c12 [Example 36, 4-(1-((1R,5S)-3,8-diazabicyclo[3.2.1]octan-3-yl)-3-(((S,Z)-2-(fluoromethylene)tetrahydro-1H-pyrrolizin-7a(5H)-yl)methoxy)imidazo[1′,2′:1,6]pyrido[3,2-d]pyrimidin-6-yl)-5-ethynyl-6-fluoronaphthalen-2-amine] | 7.57 | 3.42
Cn1cc2c(n1)c(-c1cc(O)cc3ccc(F)c(F)c13)cc1nc(OC[C@@]34CCCN3C/C(=C\F)C4)nc(N3C[C@H]4CC[C@@H](C3)N4)c12 [Example 84, 4-(9-((1R,5S)-3,8-diazabicyclo[3.2.1]octan-3-yl)-7-(((S,Z)-2-(fluoromethylene)tetrahydro-1H-pyrrolizin-7a(5H)-yl)methoxy)-2-methyl-2H-pyrazolo[4,3-f]quinazolin-4-yl)-5,6-difluoronaphthalen-2-ol] | 8.13 | 4.13
Cc1cc2c(o1)c(-c1nc(N)ccc1C(F)(F)F)c(F)c1nc(OC[C@@]34CCCN3C[C@H](F)C4)nc(N3C[C@H]4CC[C@@H](C3)N4)c12 [Example 50, 6-(1-((1R,5S)-3,8-diazabicyclo[3.2.1]octan-3-yl)-5-fluoro-3-(((2R,7aS)-2-fluorotetrahydro-1H-pyrrolizin-7a(5H)-yl)methoxy)-8-methylfuro[3,2-f]quinazolin-6-yl)-5-(trifluoromethyl)pyridin-2-amine] | 0.58 | −0.31
Cc1cc2[nH]ncc2c(-c2cc3nc(OC[C@@]45CCCN4C[C@H](F)C5)nc(N4[C@@H]5CC[C@H]4CNC5)c3n3ccnc23)c1C(F)(F)F [Example 18, 1-((1 R,5S)-3,8-diazabicyclo[3.2.1]octan-8-yl)-3-(((2R,7aS)-2-fluorotetrahydro-1H-pyrrolizin-7a(5H)-yl)methoxy)-6-(6-methyl-5-(trifluoromethyl)-1H-indazol-4-yl)imidazo[1′,2′:1,6]pyrido[3,2-d]pyrimidine] | 2.35 | 1.01
